In ChEMBL document CHEMBL1129822, “Thermal atropisomerism of fully functionalized vancomycin CD, DE, and CDE ring systems” (Bioorg Med Chem Lett, 1997):

Legend:
Assay type in all cases: ADME
[1] = Half-life at 140 degrees C in DMSO
[2] = The equilibrium constant at 140 degrees C in DMSO
[3] = Half-life at 155 degrees C in DMSO
[4] = The equilibrium constant at 140 in ortho dichloro benzene
[5] = Half-life at 140 degrees C in ortho dichloro benzene; details: ortho-dichlorobenzene
[6] = The equilibrium constant at 155 degrees C in DMSO
[7] = Half-life at 125 degrees C in DMSO
[8] = The equilibrium constant at 125 degrees C in DMSO

half-life [1] [h] | k [2] [h⁻¹] | half-life [3] [h] | k [4] [h⁻¹] | half-life [5] [h] | k [6] [h⁻¹] | half-life [7] [h] | k [8] [h⁻¹] | Structure (SMILES)
3.52 | 0.082 | 1.06 | 0.029 | 9.77 | 0.27 |  |  | COC(=O)[C@H]1NC(=O)[C@@H](c2ccc(OC)c(Br)c2)NC(=O)[C@H](NC(=O)OC(C)(C)C)c2cc(O)c(OC)c(c2)Oc2ccc(cc2[N+](=O)[O-])[C@H]1O[Si](C)(C)C(C)(C)C
0.092 | 2.06 |  |  |  |  | 0.28 | 0.88 | COc1c(O)cc2cc1Oc1ccc(cc1[N+](=O)[O-])[C@@H](O)[C@@H](NC(=O)OC(C)(C)C)C(=O)N[C@@H](CC(N)=O)C(=O)N[C@H]2C(=O)OC(C)(C)C
4.03 | 0.071 |  | 0.0054 | 53 |  |  |  | COC(=O)[C@H]1NC(=O)[C@@H](c2ccc(OC)c(Br)c2)NC(=O)[C@H](NC(=O)OC(C)(C)C)c2cc(O)c(OC)c(c2)Oc2ccc(cc2Cl)[C@H]1O[Si](C)(C)C(C)(C)C
